The values below come from ChEMBL document CHEMBL5500349, “Discovery of ganoderic acid A (GAA) PROTACs as MDM2 protein degraders for the treatment of breast cancer” (Eur J Med Chem, 2024).

Structures are written as SMILES.

What all share (details): time 48-72 hrs, read-out: Activity
One data set concerns MDA-MB-231. As to the kind of experiment: Antiproliferative activity against human MDA-MB-231 cells assessed as cell viability at 100 uM incubated for 48 to 72 hrs by MTT assay. The class given is functional.
Data set [1] is described as follows: Cytotoxicity against mouse HT-22 cells assessed as cell viability at 100 uM incubated for 48 to 72 hrs by MTT assay. The class given is toxicity, cell-based.
The next data set concerns MCF7. Nature of the data set: Antiproliferative activity against human MCF7 cells assessed as cell viability at 100 uM incubated for 48 to 72 hrs by MTT assay. The class given is functional.
The next data set deals with HepG2. As to the kind of experiment: Antiproliferative activity against human HepG2 cells assessed as cell viability at 100 uM incubated for 48 to 72 hrs by MTT assay. The format is functional. In general terms: Tetrazolium dyes change colour on reduction, which living cells bring about.
The test system of another data set is SJSA-1. As to the kind of experiment: Antiproliferative activity against human SJSA-1 cells assessed as cell viability at 100 uM incubated for 48 to 72 hrs by MTT assay. The format is functional.

Regarding `Cc1ncsc1-c1ccc([C@H](C)NC(=O)[C@@H]2C[C@@H](O)CN2C(=O)[C@@H](NC(=O)CCCCc2cn(CCOCCOCCNC(=O)[C@H](C)CC(=O)C[C@@H](C)[C@H]3C[C@H](O)[C@@]4(C)C5=C(C(=O)C[C@]34C)[C@@]3(C)CCC(=O)C(C)(C)[C@@H]3C[C@@H]5O)nn2)C(C)(C)C)cc1`, the viability at 100 µM was 31.6% in the data set with MDA-MB-231; 95.9% in data set [1]; 41.4% in the data set with MCF7; 86.8% in the data set on HepG2; 77.1% in the data set on SJSA-1.
In the case of `C[C@H](CC(=O)C[C@@H](C)[C@H]1C[C@H](O)[C@@]2(C)C3=C(C(=O)C[C@]12C)[C@@]1(C)CCC(=O)C(C)(C)[C@@H]1C[C@@H]3O)C(=O)NCc1cn(CCOCCOCCOCCNc2cccc3c2C(=O)N(C2CCC(=O)NC2=O)C3=O)nn1` (some centres undefined), the viability at 100 µM worked out at 74.7% with MDA-MB-231; 78.2% in data set [1]; 83.4% with MCF7; 91% in the data set on HepG2; 67% in the data set on SJSA-1.
For `C[C@H](CC(=O)C[C@@H](C)[C@H]1C[C@H](O)[C@@]2(C)C3=C(C(=O)C[C@]12C)[C@@]1(C)CCC(=O)C(C)(C)[C@@H]1C[C@@H]3O)C(=O)NCCOCCOCCOCCn1cc(CNc2cccc3c2C(=O)N(C2CCC(=O)NC2=O)C3=O)nn1` (some centres undefined) the same measures were 69.7%, 97.2%, 65.5%, 81.3% and 83.4%.
In the same order, the values of `C[C@H](CC(=O)C[C@@H](C)[C@H]1C[C@H](O)[C@@]2(C)C3=C(C(=O)C[C@]12C)[C@@]1(C)CCC(=O)C(C)(C)[C@@H]1C[C@@H]3O)C(=O)NCCOCCOCCOCCOCCn1cc(CNc2cccc3c2C(=O)N(C2CCC(=O)NC2=O)C3=O)nn1` (some centres undefined) are 90.2%, 91.9%, 75.9%, 130% and 83%.
`Cc1ncsc1-c1ccc([C@H](C)NC(=O)[C@@H]2C[C@@H](O)CN2C(=O)[C@@H](NC(=O)CCCc2cn(CCOCCOCCOCCOCCNC(=O)[C@H](C)CC(=O)C[C@@H](C)[C@H]3C[C@H](O)[C@@]4(C)C5=C(C(=O)C[C@]34C)[C@@]3(C)CCC(=O)C(C)(C)[C@@H]3C[C@@H]5O)nn2)C(C)(C)C)cc1`: the viability at 100 µM amounted to 28.7% in the data set with MDA-MB-231; 96.9% in data set [1]; 30.1% in the data set on MCF7; 94.8% with HepG2; 61.7% in the data set with SJSA-1.
`C[C@H](CC(=O)C[C@@H](C)[C@H]1C[C@H](O)[C@@]2(C)C3=C(C(=O)C[C@]12C)[C@@]1(C)CCC(=O)C(C)(C)[C@@H]1C[C@@H]3O)C(=O)NCCOCCn1cc(CNc2cccc3c2C(=O)N(C2CCC(=O)NC2=O)C3=O)nn1` (some centres undefined): the viability at 100 µM in the data set with MDA-MB-231 was determined as 73.1%; in data set [1], 99.2%; in the data set on MCF7, 81.8%; in the data set on HepG2 it was 110%; in the data set with SJSA-1, 92.2%.
For `C[C@H](CC(=O)C[C@@H](C)[C@H]1C[C@H](O)[C@@]2(C)C3=C(C(=O)C[C@]12C)[C@@]1(C)CCC(=O)C(C)(C)[C@@H]1C[C@@H]3O)C(=O)NCc1cn(CCCNc2cccc3c2C(=O)N(C2CCC(=O)NC2=O)C3=O)nn1` (some centres undefined) the same measures were 73.8%, 96.7%, 65.9%, 58.4% and 79.6%.
In the same order, the values of `C[C@H](CC(=O)C[C@@H](C)[C@H]1C[C@H](O)[C@@]2(C)C3=C(C(=O)C[C@]12C)[C@@]1(C)CCC(=O)C(C)(C)[C@@H]1C[C@@H]3O)C(=O)NCc1cn(CCOCCNc2cccc3c2C(=O)N(C2CCC(=O)NC2=O)C3=O)nn1` (some centres undefined) are 48.6%, 83.2%, 60.7%, 85.8% and 88.2%.
For `C[C@H](CC(=O)C[C@@H](C)[C@H]1C[C@H](O)[C@@]2(C)C3=C(C(=O)C[C@]12C)[C@@]1(C)CCC(=O)C(C)(C)[C@@H]1C[C@@H]3O)C(=O)NCCOCCOCCn1cc(CNc2cccc3c2C(=O)N(C2CCC(=O)NC2=O)C3=O)nn1` (some centres undefined) the same measures were 71.6%, 98.7%, 76.8%, 105% and 85.9%.
In the case of `C[C@H](CC(=O)C[C@@H](C)[C@H]1C[C@H](O)[C@@]2(C)C3=C(C(=O)C[C@]12C)[C@@]1(C)CCC(=O)C(C)(C)[C@@H]1C[C@@H]3O)C(=O)NCc1cn(CCOCCOCCNc2cccc3c2C(=O)N(C2CCC(=O)NC2=O)C3=O)nn1` (some centres undefined), the viability at 100 µM with MDA-MB-231 worked out at 63.1%; in data set [1], 78.2%; in the data set with MCF7 it was 71.2%; with HepG2 it was 88.8%; with SJSA-1, 60.6%.
Take `Cc1ncsc1-c1ccc([C@H](C)NC(=O)[C@@H]2C[C@@H](O)CN2C(=O)[C@@H](NC(=O)CCCc2cn(CCOCCNC(=O)[C@H](C)CC(=O)C[C@@H](C)[C@H]3C[C@H](O)[C@@]4(C)C5=C(C(=O)C[C@]34C)[C@@]3(C)CCC(=O)C(C)(C)[C@@H]3C[C@@H]5O)nn2)C(C)(C)C)cc1`: the viability at 100 µM was found to be 41.8% with MDA-MB-231; 97% in data set [1]; 66.9% in the data set with MCF7; 105% in the data set on HepG2; 58.4% in the data set on SJSA-1.
For `C[C@H](CC(=O)C[C@@H](C)[C@H]1C[C@H](O)[C@@]2(C)C3=C(C(=O)C[C@]12C)[C@@]1(C)CCC(=O)C(C)(C)[C@@H]1C[C@@H]3O)C(=O)NCCCn1cc(CNc2cccc3c2C(=O)N(C2CCC(=O)NC2=O)C3=O)nn1` (some centres undefined) the same measures were 56.2%, 94.9%, 70.5%, 116% and 75.7%.
In the same order, the values of `Cc1ncsc1-c1ccc([C@H](C)NC(=O)[C@@H]2C[C@@H](O)CN2C(=O)[C@@H](NC(=O)CCCCc2cn(CCOCCNC(=O)[C@H](C)CC(=O)C[C@@H](C)[C@H]3C[C@H](O)[C@@]4(C)C5=C(C(=O)C[C@]34C)[C@@]3(C)CCC(=O)C(C)(C)[C@@H]3C[C@@H]5O)nn2)C(C)(C)C)cc1` are 70.8%, 97%, 81.9%, 94% and 88.2%.
For `Cc1ncsc1-c1ccc([C@H](C)NC(=O)[C@@H]2C[C@@H](O)CN2C(=O)[C@@H](NC(=O)CCCc2cn(CCOCCOCCOCCNC(=O)[C@H](C)CC(=O)C[C@@H](C)[C@H]3C[C@H](O)[C@@]4(C)C5=C(C(=O)C[C@]34C)[C@@]3(C)CCC(=O)C(C)(C)[C@@H]3C[C@@H]5O)nn2)C(C)(C)C)cc1` the same measures were 25.5%, 90.2%, 42.7%, 89.2% and 61.8%.
Consider `Cc1ncsc1-c1ccc([C@H](C)NC(=O)[C@@H]2C[C@@H](O)CN2C(=O)[C@@H](NC(=O)CCCCc2cn(CCCNC(=O)[C@H](C)CC(=O)C[C@@H](C)[C@H]3C[C@H](O)[C@@]4(C)C5=C(C(=O)C[C@]34C)[C@@]3(C)CCC(=O)C(C)(C)[C@@H]3C[C@@H]5O)nn2)C(C)(C)C)cc1`, for which the viability at 100 µM in the data set on MDA-MB-231 stood at 97.5%; in data set [1], 102%; in the data set with MCF7, 57.9%; in the data set with HepG2 it was 96.5%; with SJSA-1, 84.6%.
For `Cc1ncsc1-c1ccc([C@H](C)NC(=O)[C@@H]2C[C@@H](O)CN2C(=O)[C@@H](NC(=O)CCCc2cn(CCCNC(=O)[C@H](C)CC(=O)C[C@@H](C)[C@H]3C[C@H](O)[C@@]4(C)C5=C(C(=O)C[C@]34C)[C@@]3(C)CCC(=O)C(C)(C)[C@@H]3C[C@@H]5O)nn2)C(C)(C)C)cc1` the same measures were 99.1%, 89.1%, 87%, 90.1% and 81.5%.
With `COc1cccc2c1C(=O)c1c(O)c3c(c(O)c1C2=O)C[C@@](O)(C(=O)CO)C[C@@H]3O[C@H]1C[C@H](N)[C@H](O)[C@H](C)O1` [DOXORUBICIN], the viability at 100 µM in the data set with MDA-MB-231 turned out to be 39.4%; in the data set with MCF7 it was 57.5%; with HepG2, 64.3%; in the data set with SJSA-1, 56.2%.
`Cc1ncsc1-c1ccc([C@H](C)NC(=O)[C@@H]2C[C@@H](O)CN2C(=O)[C@@H](NC(=O)CCCc2cn(CCOCCOCCNC(=O)[C@H](C)CC(=O)C[C@@H](C)[C@H]3C[C@H](O)[C@@]4(C)C5=C(C(=O)C[C@]34C)[C@@]3(C)CCC(=O)C(C)(C)[C@@H]3C[C@@H]5O)nn2)C(C)(C)C)cc1`: the viability at 100 µM in the data set on MDA-MB-231 was found to be 37.7%; in data set [1], 101%; with MCF7, 40.8%; in the data set on HepG2, 84.6%; with SJSA-1, 74.1%.
As to `C[C@H](CC(=O)C[C@@H](C)[C@H]1C[C@H](O)[C@@]2(C)C3=C(C(=O)C[C@]12C)[C@@]1(C)CCC(=O)C(C)(C)[C@@H]1C[C@@H]3O)C(=O)NCc1cn(CCOCCOCCOCCOCCNc2cccc3c2C(=O)N(C2CCC(=O)NC2=O)C3=O)nn1` (some centres undefined), the viability at 100 µM was 57.9% with MDA-MB-231; 98.3% in data set [1]; 57.2% in the data set with MCF7; 125% with HepG2; 95.9% in the data set with SJSA-1.
